How the values were obtained:
Assay in all cases: biochemical
Type in all cases: binding
468 kinases [1] = target: 468 kinases (Homo sapiens, UniProt P54760); settings: EPHB4; read-out: % Inhibition @ 100 nM
468 kinases [2] = target: 468 kinases (Homo sapiens, UniProt Q00532); settings: CDKL1; read-out: % Inhibition @ 100 nM
468 kinases [3] = target: 468 kinases (Homo sapiens, UniProt P36897); settings: TGFBR1; read-out: % Inhibition @ 100 nM
468 kinases [4] = target: 468 kinases (Homo sapiens, UniProt Q16620); settings: TRKB; read-out: % Inhibition @ 100 nM
468 kinases [5] = target: 468 kinases (Homo sapiens, UniProt P30530); settings: AXL; read-out: % Inhibition @ 100 nM
468 kinases [6] = target: 468 kinases (Homo sapiens, UniProt Q5S007, G2019S); settings: LRRK2(G2019S); read-out: % Inhibition @ 100 nM
468 kinases [7] = target: 468 kinases (Homo sapiens, UniProt Q9P0L2); settings: MARK1; read-out: % Inhibition @ 100 nM
468 kinases [8] = target: 468 kinases (Homo sapiens, UniProt O94768); settings: DRAK2; read-out: % Inhibition @ 100 nM
468 kinases [9] = target: 468 kinases (Homo sapiens, UniProt Q9UBF8); settings: PIK4CB; read-out: % Inhibition @ 100 nM
468 kinases [10] = target: 468 kinases (Homo sapiens, UniProt P07947); settings: YES; read-out: % Inhibition @ 100 nM
468 kinases [11] = target: 468 kinases (Homo sapiens, UniProt O14757); settings: CHEK1; read-out: % Inhibition @ 100 nM
468 kinases [12] = target: 468 kinases (Homo sapiens, UniProt Q9P1W9); settings: PIM2; read-out: % Inhibition @ 100 nM
468 kinases [13] = target: 468 kinases (Homo sapiens, UniProt P37173); settings: TGFBR2; read-out: % Inhibition @ 100 nM
468 kinases [14] = target: 468 kinases (Homo sapiens, UniProt Q9H422); settings: HIPK3; read-out: % Inhibition @ 100 nM
468 kinases [15] = target: 468 kinases (Homo sapiens, UniProt P42336, I800L); settings: PIK3CA(I800L); read-out: % Inhibition @ 100 nM
468 kinases [16] = target: 468 kinases (Homo sapiens, UniProt P42336, H1047Y); settings: PIK3CA(H1047Y); read-out: % Inhibition @ 100 nM
468 kinases [17] = target: 468 kinases (Homo sapiens, UniProt Q96L34); settings: MARK4; read-out: % Inhibition @ 100 nM
468 kinases [18] = settings: for Number of kinases inhibited >90%: at 100 nM, of 468 kinases
468 kinases [19] = target: 468 kinases (Homo sapiens, UniProt Q96NX5); settings: CAMK1G; read-out: % Inhibition @ 100 nM
468 kinases [20] = target: 468 kinases (Homo sapiens, UniProt Q13705); settings: ACVR2B; read-out: % Inhibition @ 100 nM
468 kinases [21] = target: 468 kinases (Homo sapiens, UniProt Q06418); settings: TYRO3; read-out: % Inhibition @ 100 nM
468 kinases [22] = target: 468 kinases (Homo sapiens, UniProt Q8NFD2); settings: ANKK1; read-out: % Inhibition @ 100 nM
468 kinases [23] = target: 468 kinases (Plasmodium falciparum, UniProt P62344); settings: PFCDPK1 (P.falciparum); read-out: % Inhibition @ 100 nM
468 kinases [24] = target: 468 kinases (Homo sapiens, UniProt O96017); settings: CHEK2; read-out: % Inhibition @ 100 nM
468 kinases [25] = target: 468 kinases (Homo sapiens, UniProt O15146); settings: MUSK; read-out: % Inhibition @ 100 nM
468 kinases [26] = target: 468 kinases (Homo sapiens, UniProt P49841); settings: GSK3B; read-out: % Inhibition @ 100 nM
468 kinases [27] = target: 468 kinases (Homo sapiens, UniProt Q16816); settings: PHKG1; read-out: % Inhibition @ 100 nM
468 kinases [28] = target: 468 kinases (Homo sapiens, UniProt Q6XUX3); settings: RIPK5; read-out: % Inhibition @ 100 nM
468 kinases [29] = target: 468 kinases (Homo sapiens, UniProt Q16539); settings: p38-alpha; read-out: % Inhibition @ 100 nM
468 kinases [30] = target: 468 kinases (Homo sapiens, UniProt Q96J92); settings: WNK4; read-out: % Inhibition @ 100 nM
468 kinases [31] = target: 468 kinases (Homo sapiens, UniProt Q7KZI7); settings: MARK2; read-out: % Inhibition @ 100 nM
468 kinases [32] = target: 468 kinases (Homo sapiens, UniProt O94804); settings: LOK; read-out: % Inhibition @ 100 nM

Compound | inhibition at 0.1 µM (468 kinases [1]) | inhibition at 0.1 µM (468 kinases [2]) | inhibition at 0.1 µM (468 kinases [3]) | inhibition at 0.1 µM (468 kinases [4]) | inhibition at 0.1 µM (468 kinases [5]) | inhibition at 0.1 µM (468 kinases [6]) | inhibition at 0.1 µM (468 kinases [7]) | inhibition at 0.1 µM (468 kinases [8]) | inhibition at 0.1 µM (468 kinases [9]) | inhibition at 0.1 µM (468 kinases [10]) | inhibition at 0.1 µM (468 kinases [11]) | inhibition at 0.1 µM (468 kinases [12]) | inhibition at 0.1 µM (468 kinases [13]) | inhibition at 0.1 µM (468 kinases [14]) | inhibition at 0.1 µM (468 kinases [15]) | inhibition at 0.1 µM (468 kinases [16]) | inhibition at 0.1 µM (468 kinases [17]) | % Inhibition @ 100 nM (468 kinases [18]; EGFR(L747-E749del, A750P)) | % Inhibition @ 100 nM (468 kinases [18]; EGFR(L747-S752del, P753S)) | % Inhibition @ 100 nM (468 kinases [18]; EGFR(L747-T751del,Sins)) | also measured
CCN(CC)CCNC(=O)c1c(C)[nH]c(/C=C2\C(=O)Nc3ccc(CCC(N)=O)cc32)c1C [Compound No. 16, (Z)-5-((5-(3-Amino-3-oxopropyl)-2-oxoindolin-3-ylidene)methyl)-N-(2-(diethylamino)ethyl)-2,4-dimethyl-1H-pyrrole-3-carboxamide] | 0% | 26% | 1% | 83% | 92.5% | 88% | 13% | 0% | 10% | 24% | 66% | 0% | 0% | 95.3% | 20% | 28% | 12% | 27% | 5% | 11% | % Inhibition @ 100 nM (468 kinases [18]; FLT3(ITD)): 97.2%; % Inhibition @ 100 nM (468 kinases [18]; FLT3(ITD,D835V)): 100%; % Inhibition @ 100 nM (468 kinases [18]; FLT3(ITD,F691L)): 100%; Number of kinases inhibited >90% (468 kinases [18]): 33 kinases; inhibition at 0.1 µM (468 kinases [19]): 37%; inhibition at 0.1 µM (468 kinases [20]): 12%; inhibition at 0.1 µM (468 kinases [21]): 2.1%; inhibition at 0.1 µM (468 kinases [22]): 66%; inhibition at 0.1 µM (468 kinases [23]): 14%; inhibition at 0.1 µM (468 kinases [24]): 93.2%; inhibition at 0.1 µM (468 kinases [25]): 15%; inhibition at 0.1 µM (468 kinases [26]): 36%; inhibition at 0.1 µM (468 kinases [27]): 88%; inhibition at 0.1 µM (468 kinases [28]): 3%; inhibition at 0.1 µM (468 kinases [29]): 0%; inhibition at 0.1 µM (468 kinases [30]): 55%; inhibition at 0.1 µM (468 kinases [31]): 40%; inhibition at 0.1 µM (468 kinases [32]): 0%
CCN(CC)CCNC(=O)c1c(C)[nH]c(/C=C2\C(=O)Nc3ccc(CCO)cc32)c1C [Compound No. 10, (Z)—N-(2-(Diethylamino)ethyl)-5-((5-(2-hydroxyethyl)-2-oxoindolin-3-ylidene)methyl)-2,4-dimethyl-1H-pyrrole-3-carboxamide] | 3% | 31% | 11% | 61% | 88% | 89% | 39% | 1% | 0% | 13% | 42% | 8% | 0% | 21% | 41% | 4% | 41% | 0% | 23% | 37% | % Inhibition @ 100 nM (468 kinases [18]; FLT3(ITD)): 99.3%; % Inhibition @ 100 nM (468 kinases [18]; FLT3(ITD,D835V)): 99.15%; % Inhibition @ 100 nM (468 kinases [18]; FLT3(ITD,F691L)): 100%; Number of kinases inhibited >90% (468 kinases [18]): 28 kinases; inhibition at 0.1 µM (468 kinases [19]): 0%; inhibition at 0.1 µM (468 kinases [20]): 1%; inhibition at 0.1 µM (468 kinases [21]): 0%; inhibition at 0.1 µM (468 kinases [22]): 53%; inhibition at 0.1 µM (468 kinases [23]): 0%; inhibition at 0.1 µM (468 kinases [24]): 83%; inhibition at 0.1 µM (468 kinases [25]): 28%; inhibition at 0.1 µM (468 kinases [26]): 0%; inhibition at 0.1 µM (468 kinases [27]): 86%; inhibition at 0.1 µM (468 kinases [28]): 0%; inhibition at 0.1 µM (468 kinases [29]): 0%; inhibition at 0.1 µM (468 kinases [30]): 0%; inhibition at 0.1 µM (468 kinases [31]): 6%; inhibition at 0.1 µM (468 kinases [32]): 3%

Reference: patent publication US12435059B2, “AMP-activated protein kinase inhibitors and methods of making and using the same” (The Regents of the University of Colorado, priority 2019, dated 2025)
